The text below walks through data of patent US8603518B2, “Hydroxybutyrate and poly-hydroxybutyrate as components of animal feed or feed additives” (Universiteit Gent, priority 2006, dated 2013).

Each structure is given as a SMILES string.

For assay [1], the system named is Artemia nauplii infected with Vibrio campbellii LMG21363. The assay can be described thus: In vivo challenge test of Artemia nauplii with Vibrio campbellii LMG21363 (Example 8). Also on record: species or system Artemia franciscana. Conditions: 2 days challenge, mean ± standard error. Here is the method:
All challenge tests were performed with high quality hatching cysts of Artemia franciscana (EG® Type, batch 6940, INVE Aquaculture, Baasrode, Belgium). Two hundred mg of cysts were hydrated in 18 ml of tap water during 1 h. Sterile cysts and nauplii were obtained via decapsulation, adapted from the protocol described by Marques et al. (2004). […] The decapsulation was stopped after 2 min by adding 14 ml of Na2S2O3 (10 gl^−1). During the reaction, 0.22 μm filtered aeration was provided. The decapsulated cysts were washed with autoclaved artificial seawater containing 35 g l^−1 of Instant Ocean synthetic sea salt (Aquarium Systems Inc., Sarrebourg, France). The cysts were resuspended in a 50 ml tube containing 30 ml of filtered and autoclaved artificial seawater and hatched for 24 h on a rotor (4 min^−1) at 28° C. with constant illumination (approximately 2000 lux). Vibrio campbellii LMG21363 was stored in 40% glycerol at −80° C. Ten μl of this stored culture was inoculated into fresh Marine Broth (Difco Laboratories, Detroit, USA) and incubated overnight at 28° C. under constant agitation (100 min-1). The grown cultures of Vibrio campbellii were washed in autoclaved artificial seawater and the suspensions were diluted to an OD600 of approximately 0.1. 20 μl of the diluted suspensions was inoculated into the Artemia culture water. Aeromonas hydrophila LVS3 was used as feed for the nauplii (Defoirdt et al., 2005). The strain was grown overnight on Marine Agar (Difco Laboratories, Detroit, USA), suspended in sterile artificial seawater, diluted to an OD600 of approximately 1 and autoclaved. 300 μl of the autoclaved suspension was added to the Artemia culture water. […] Challenge tests were performed as described by Defoirdt et al. (2005), with slight modifications. Briefly, after hatching, groups of 20 nauplii were transferred to new sterile 50 ml tubes that contained 20 ml of filtered and autoclaved artificial seawater. The tubes were inoculated with Vibrio campbellii LMG21363 (except for the control, where no pathogen was added) and fed with LVS3. For the experiment with fatty acids, the fatty acids were dissolved in artificial seawater at different concentrations (25, 50 and 100 mM). The pH of the solutions was brought back to 7 and the solutions were filtersterilised over a 0.22 μm filter (Millipore, Bedford, USA). After feeding and the addition of the appropriate chemical and/or bacteria, the falcon tubes were put back on the rotor and kept at 28° C. […] All manipulations were done under a laminar flow hood in order to maintain sterility of the cysts and nauplii. Each treatment was done in triplicate.

Assay [2] relates to Vibrio campbellii LMG21363. Kind of assay: Growth of Vibrio campbellii LMG21363 in LB medium (OD600). Type of assay: cell-based. Conditions: pH 6. Here is the method:
Vibrio campbellii LMG21363 was grown overnight in LB medium on a shaker at 28° C. Subsequently, the suspension was diluted 1:50 (v/v) in LB medium supplemented with butyrate (Sigma-Aldrich, Bornem, Belgium) or β-hydroxybutyrate (Sigma-Aldrich, Bornem, Belgium). For each compound, three solutions were made with the following concentrations: 25, 50 and 100 mM. LB medium without supplements was used as a control. The pH of all solutions was set at 6, 7 or 8. After inoculation, the suspensions were incubated at 28° C. in a static mode. Growth was monitored by measuring the optical density (OD600) during 20 h. Each treatment was performed in triplicate.

For assay [3], the system named is broiler chickens. The assay can be described thus: Growth performance trial with broiler chickens, day 8 to day 22 (Rhodobacter sphaeroides biomass). Type of assay: in vivo, chickens (ROSS PM3). As to conditions: dose 10 mg/kg. Here is the method: A growth performance trial with broiler chickens was performed from day 8 to day 22. The chickens were housed in wire-floored battery cages. From day-old until day 8, the chickens were fed a pre-experimental diet based on wheat, maize and soybean meal. In the experimental period (day 8 to 22) the chickens received diets based on wheat, rye and soybean meal (composition see Table 1). Groups of birds were weighed on days 8, 15, and 22. The feed consumption for the intermediate periods was determined and body weight gain and feed conversion ratio were calculated.

For assay [4], the system named is broiler chickens. Kind of assay: Second broiler chicken growth trial with crystalline PHB, day 8 to day 29. The format is in vivo. As to conditions: Day 8-29; dose 10 mg/kg.
Setting [5] is: 25 mM in culture water at start.
Setting [6] is: 100 mM in culture water at start.

As to `CCCC(=O)O` [butyrate], the Survival was determined as 48 ± 2 % in assay [1] (setting [5]) and 50 ± 5 % in assay [1] (setting [6]).

Regarding `CC(O)CC(=O)O` (stereo not drawn) [β-hydroxybutyrate, 3-hydroxybutyrate], the “Growth of Vibrio campbellii” value in assay [2] (100 mM) is “strongly inhibited”; in assay [2] (lower concentrations) it was “not completely inhibited”. Further, the Survival in assay [1] (setting [5]) turned out to be 38 ± 15%; in assay [1] (setting [6]), 40 ± 3 %.

As for `COC[C@H]1O[C@@H](OC2OC[C@@H]3O[C@]4(O[C@H]3[C@H]2OC(=O)C(C)C)O[C@H](C)[C@@](O)(C(C)=O)[C@@H]2OCO[C@H]24)[C@@H](OC)[C@@H](O)[C@@H]1O[C@@H]1O[C@H](C)[C@H](OC)[C@H](O[C@H]2C[C@@]3(C)OC4(C[C@@H](O)[C@H](O[C@H]5C[C@@H](O)[C@H](OC(=O)c6c(C)c(Cl)c(O)c(Cl)c6OC)[C@@H](C)O5)[C@@H](C)O4)O[C@@H]3[C@@H](C)O2)[C@H]1O` (stereo partly drawn) [Avilamycin], in the assay with broiler chickens [3] (Day 8-15), the Feed conversion is given as 1.652 ± 0.090 g feed/g gain, the Feed intake came out at 552 ± 43 g/bird and the Weight gain was found to be 334 ± 20 g/bird. Moreover, in the assay with broiler chickens [3] (Day 8-22), the Feed conversion was found to be 1.778 ± 0.072 g feed/g gain, the “Feed conversion relative to control (control 100.0)” value is 94.9, the Feed intake is 1441 ± 100 g/bird and the “Feed intake relative to control (control 100.0)” value came out at 101.1. Also, in the assay with broiler chickens [3] (Day 8-22), the Weight gain stood at 810 ± 39 g/bird and the “Weight gain relative to control (control 100.0)” value is listed as 106.7. In the assay on broiler chickens [3] (Day 15-22), the Feed conversion worked out at 1.867 ± 0.078 g feed/g gain, the Feed intake was found to be 889 ± 67 g/bird and the Weight gain was found to be 476 ± 24 g/bird. Further, in the assay with broiler chickens [4], the FCR worked out at 1.756 ± 0.079 g feed/g gain; the “FCR, % of control” value turned out to be 94.5%; the Feed intake came out at 2402 ± 196 g/bird; the “Feed intake, % of control” value is listed as 101.0%. Further, in the assay on broiler chickens [4], the Weight gain is given as 1367 ± 85 g/bird and the “Weight gain, % of control” value was 106.6%.
